Results on two molecules are retold here after patent US6339070B1, “Gene construct encoding a heterologous prodrug-activating enzyme and a cell targeting moiety” (Zeneca Limited, priority 1997, dated 2002).

Assay [1] has as its system non-transfected HCT116 cells. Type of assay: cell-based. Particulars: read-out: IC50 (concentration required to inhibit cell growth by 50%).
Assay [2] relates to HCT116 cells transfected with the antibody-CPG2 fusion protein gene. Type of assay: cell-based.
In assay [3] the test system is HCT116 tumours established from transfected HCT116 cells. The experiment in a line: Anti-tumour activity in HCT116 tumours from transfected cells. The class given is in vivo, athymic nude mice. Conditions: PGP i.p., 3 doses at hourly intervals, 5-25 mg kg^-1, vs PBS. How it is done: (§1) HCT116 tumour cells transfected with the antibody-CPG2 fusion protein gene or control non-transfected HCT116 tumour cells are injected subcutaneously into athymic nude mice (10^7 tumour cells per mouse). When the turnours are 5-7 mm in diameter the PGP prodrug is administered i.p. to the mice (3 doses at hourly intervals over 2 h in dose ranges of 5-25 mg kg^−1). The anti-tumour effects are judged by measuring the length of the tumours in two directions and calculating the tumour volume using the formula: […]
(§2) where D is the larger diameter and d is the smaller diameter of the tumour.
(§3) Tumour volume is expressed relative to the tumour volume at the time the PGP prodrug is administered. The anti-tumour activity is compared to a control group receiving either transfected or non-transfected tumour cells and PBS ([…], 3.4 mM KCl, 12 mM Na2HPO4 and 1.8 mM KH2PO4, pH 7.2) instead of the PGP prodrug.

Assay [4] has as its system HCT116 tumours established from non-transfected cells. Description: Anti-tumour activity in HCT116 tumours from non-transfected cells. Type of assay: in vivo, athymic nude mice. Conditions: PGP i.p., 3 doses at hourly intervals, 5-25 mg kg^-1. The method, then:
as §1, §2, §3

The test system of assay [5] is LoVo cells transfected with an antibody-CPG2 fusion protein gene. Description: In vitro prodrug killing, LoVo cells transfected with antibody-CPG2 fusion protein gene. Type of assay: cell-based.
The subject of assay [6] is non-transfected LoVo cells. The experiment in a line: In vitro prodrug killing, non-transfected LoVo cells. The class given is cell-based.
The subject of assay [7] is LoVo tumours established from recombinant LoVo cells or recombinant Lovo/Parental LoVo cell mixes. Description: Anti-tumour activity in LoVo tumours expressing the antibody-CPG2 fusion protein. Type of assay: in vivo, athymic nude mice. How it is done:
(§4) Recombinant LoVo (A5B7-CPG2)2 fusion protein expressing tumour cells or mixes of recombinant and parental LoVo cells were injected subcutaneously into athymic nude mice as described in Example 9.
(§5) When the tumours are 5-7 mm in diameter the PGP prodrug is administered i.p. to the mice (3 doses in DMSO/0.15 M sodium bicarbonate buffer at hourly intervals over 2 h in dose ranges of 40-80 mg kg^−1).
(§6) Anti-tumour effects are judged by measuring the length of the tumours in two directions and calculating the tumour volume using the formula
(§7) where D is the larger diameter and d is the smaller diameter of the tumour. Tumour volume may be expressed relative to the tumour volume at the time the PGP prodrug is administered or alternatively the median tumouT volumes may be calculated. The anti-tumour activity is compared to control groups receiving either transfected or non-transfected tumour cells and buffer without PGP prodrug.

In assay [8] the test system is LoVo tumours established from non-transfected cells. Description: Anti-tumour activity in LoVo tumours from non-transfected cells. Particulars: PGP i.p., 3 doses at hourly intervals, 40-80 mg kg^-1. The class given is in vivo, athymic nude mice. How it is done:
as §4, §5, §6, §7

Assay [9] has as its system established HCT116 tumours produced from non-transfected HCT116 cells. Description: Anti-tumour activity, fusion gene vector injected intra-tumourally into established HCT116 tumours, then PGP. Type of assay: in vivo, athymic nude mice. Particulars: PGP after 1-3 days, vs PBS. The method, then:
Thus non-transfected HCT116 cells are injected into athymic nude mice (1×10^7 tumour cells per mouse) and once the tumours are 5-7 mm in diameter the vector containing the antibody-enzyme fusion protein gene is injected intra-tumourally. After 1-3 days to allow the antibody-enzyme fusion protein to be expressed by and bind to the HCT116 tumour cells, the PGP prodrug is administered as described above.

In assay [10] the test system is established LoVo tumours produced from non-transfected parental LoVo cells. The experiment in a line: Anti-tumour activity, fusion gene vector injected intra-tumourally into established LoVo tumours, then PGP. The class given is in vivo, athymic nude mice. Particulars: PGP after 1-3 days, vs controls. How it is done: Thus non-transfected LoVo cells are injected into athymic nude mice (1×10^7 tumour cells per mouse) and once the tumours are 5-7 mm in diameter the vector containing the antibody-enzyme fusion protein gene is injected intra-tumourally. After 1-3 days to allow the antibody-enzyme fusion protein to be expressed by, and bind to, the LoVo tumour cells, the PGP prodrug is administered as described above.

In assay [11] the target is T1, CEA on LoVo colorectal tumour cells (CEA positive) (human, UniProt P06731 35-685, GPI anchor on the C-terminal residue; heavily N-glycosylated on cells).
T1 construct: also called CEA positive LoVo cells; LoVo, CEA bearing, tumour cells
T1 sequence: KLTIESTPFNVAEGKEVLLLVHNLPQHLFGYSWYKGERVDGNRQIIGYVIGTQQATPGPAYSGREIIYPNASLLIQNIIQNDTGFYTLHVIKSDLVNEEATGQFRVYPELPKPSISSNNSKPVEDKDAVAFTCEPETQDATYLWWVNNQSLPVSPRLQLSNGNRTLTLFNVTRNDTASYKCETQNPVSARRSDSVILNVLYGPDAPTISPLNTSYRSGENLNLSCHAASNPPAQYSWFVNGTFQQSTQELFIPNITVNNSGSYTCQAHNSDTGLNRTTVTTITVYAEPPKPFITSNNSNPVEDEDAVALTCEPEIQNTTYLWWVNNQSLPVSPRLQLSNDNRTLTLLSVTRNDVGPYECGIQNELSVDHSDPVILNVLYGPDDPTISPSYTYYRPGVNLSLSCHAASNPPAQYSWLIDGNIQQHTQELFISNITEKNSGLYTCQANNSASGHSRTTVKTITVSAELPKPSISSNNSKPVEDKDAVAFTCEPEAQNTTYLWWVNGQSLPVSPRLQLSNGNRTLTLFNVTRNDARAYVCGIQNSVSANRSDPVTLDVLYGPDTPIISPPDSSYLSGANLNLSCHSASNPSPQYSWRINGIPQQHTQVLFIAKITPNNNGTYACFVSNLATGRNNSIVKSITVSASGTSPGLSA
Description: cell based ELISA on fixed cells, anti-human kappa HRP detection, OD 490 nm. For orientation: ELISA stands for enzyme-linked immunosorbent assay.
Description: 100 µl of 6% formaldehyde was diluted in DMEM and left for 1 hour at 4°. Plates were centrifuged and washed 3 times in PBS containing 0.05% Tween™ by immersion soaking (first two washes for 2 minutes and the final wash for 5 minutes).
Colour was allowed to develop for about 5 min, stopped with 75 μl per well of 2M H_2SO_4 and OD read at 490 nm.

The target in assay [12] is T2, human carcinoembryonic antigen (CEA) (human, UniProt P06731 35-685, limits assumed).
T2 construct: CEA as coated on the ELISA plate; also called Carcinoma Embryonic Antigen
T2 sequence (looked up): T1 sequence
The experiment in a line: CEA ELISA, COS-7 supernatant, anti-human kappa or anti-CPG2 reporter antibody.
Description: For the CEA ELISA each well of a 96 well immunoplate (NUNC MAXISORB™) was coated with 50 ng CEA in 50 mM carbonate/bicarbonate coating buffer pH9.6 (buffer capsules—Sigma C3041) and incubated at 4° overnight. The plate was washed three times with PBS-TWEEN™ (PBS+ 0.05% TWEEN™ 20) and then blocked 150 μl per well of 1% BSA in PBS-TWEEN™ for 1 hour at room temperature. The plate was washed three times with PBS-TWEEN™, 100 μl of test sample added per well and incubated at room temperature for 2 hours. […] The plate was washed three times with PBS-TWEEN™ and then once more with PBS. To detect binding, add 100 μl per well of developing solution (one capsule of phosphate-citrate buffer—Sigma P4922—dissolved in 100 ml H_2O to which is added one 30 mg tablet o-phenylenediamine dihydrochloride—Sigma P8412) and incubated for up to 15 minutes. The reaction was stopped by adding 75 μl 2M H_2SO_4, and absorbance read at 490 nm.
The CEA ELISA using an anti CPG2 reporter antibody was essentially as above but instead of HRPO-labelled goat anti-human kappa antibody an 1/1000 dil. of a rabbit anti-CPG2 polyclonal sera was added, in 1% BSA in PBS-TWEEN™ and incubated at room temperature on a rocking platform for at 2 hours. The plate was washed three times with PBS-TWEEN™. […] The reaction was stopped by adding 75 μl 2M H_2SO_4, and absorbance read at 490 nm.

Turning to `O=C(O)CC[C@H](NC(=O)Oc1ccc(N(CCCl)CCCl)cc1)C(=O)O` [PGP, N-(4-[N,N-bis(2-chloroethyl)amino]-phenoxycarbonyl)-L-glutamic acid], the results for the IC50 in assay [1] and in [2] (read-out: IC50 (concentration required to inhibit cell growth by 50%)) were roughly 200 µM and roughly 1 µM, respectively. In assay [2], the “sensitivity of transfected compared to non-transfected HCT116 cells in terms of cell killing” value is recorded as “over 100 fold”. In addition, the anti-tumour effect entry in [3] is listed as “significant anti-tumour effect”; in assay [7] (PGP i.p., 3 doses at hourly intervals, 40-80 mg kg^-1, vs controls), “significant anti-tumour effect”. Moreover, the anti-tumour activity result in [4] is given as “no significant anti-tumour activity”; in assay [8], “no significant anti-tumour activity”; in [9], “significant anti-tumour activity”; in assay [10], “significant anti-tumour activity”. For the same molecule, the “conversion of prodrug into active drug by cells” value is “can convert the PGP prodrug into the more potent active drug” in [5] (transfected LoVo cells) and “unable to convert the prodrug” in assay [6]. Besides, in assay [5] (transfected vs non-transfected LoVo), the “sensitivity of transfected compared to non-transfected LoVo cells in terms of cell killing” value is “over 100 fold”. In addition, in assay [7] (60 mg/kg doses of prodrug, FIG. 5), the tumour growth delay is no less than 11 days. Besides, in assay [7] (60 mg/kg doses of prodrug, day 16 post-dose, FIG. 5), the “median tumour volume relative to initial size” value was found to be 3 times their initial size.

B1: (A5B7 Fab-CPG2)2 fusion protein (other)
heavy: EVKLVESGGGLVQPGGSLRLSCATSGFTFTDYYMNWVRQPPGKALEWLGFIGNKANGYTTEYSASVKGRFTISRDKSQSILYLQMNTLRAEDSATYYCTRDRGLRFYFDYWGQGTTLTVSSASTKGPSVFPLAPCSRSTSESTAALGCLVKDYFPEPVTVSWNSGALTSGVHTFPAVLQSSGLYSLSSVVTVPSSNFGTQTYTCNVDHKPSNTKVDKTVGGGGSGGGGSGGGGSQKRDNVLFQAATDEQPAVIKTLEKLVNIETGTGDAEGIAAAGNFLEAELKNLGFTVTRSKSAGLVVGDNIVGKIKGRGGKNLLLMSHMDTVYLKGILAKAPFRVEGDKAYGPGIADDKGGNAVILHTLKLLKEYGVRDYGTITVLFNTDEEKGSFGSRDLIQEEAKLADYVLSFEPTSAGDEKLSLGTSGIAYVQVQITGKASHAGAAPELGVNALVEASDLVLRTMNIDDKAKNLRFQWTIAKAGQVSNIIPASATLNADVRYARNEDFDAAMKTLEERAQQKKLPEADVKVIVTRGRPAFNAGEGGKKLVDKAVAYYKEAGGTLGVEERTGGGTDAAYAALSGKPVIESLGLPGFGYHSDKAEYVDISAIPRRLYMAARLIMDLGAGK
light: QTVLSQSPAILSASPGEKVTMTCRASSSVTYIHWYQQKPGSSPKSWIYATSNLASGVPARFSGSGSGTSYSLTISRVEAEDAATYYCQHWSSKPPTFGGGTKLEIKRTVAAPSVFIFPPSDEQLKSGTASVVCLLNNFYPREAKVQWKVDNALQSGNSQESVTEQDSKDSTYSLSSTLTLSKADYEKHKVYACEVTHQGLSSPVTKSFNRGEC
notes: Two Fab-CPG2 units dimerise non-covalently through CPG2 (about 180 kDa); Tested as cell culture supernatant (COS-7 or recombinant Colo320DM / LoVo cells); also called (A5B7-CPG2 R6)2 fusion protein; (A5B7-CPG2)2 fusion protein
As for B1, the binding result in [11] and in assay [12] was “binds” throughout.
